For orientation: Kd means the concentration at which binding is half-saturated. Higher therefore signals a looser complex.

Twelve sequences from patent US11618770B2, “MUC1-derived peptide, and pharmaceutical composition for treatment or prevention of cancer, immunity-inducing agent and method for manufacturing antigen presenting cell using same” (NEC CORPORATION, priority 2015, dated 2023) can be followed below.

One test addresses HLA-A*24:02 molecule (Homo sapiens, UniProt P04439, D101N/D140Y/D185E/E176V/E190D/F33S/G103R/G107R/I119L/I121M/I306V/K335N/L105A/L180Q/L300P/N151K/N90K/Q86E/Q94H/R106L/R138H/R89G/T104I/T345S/V100E/W191G/Y123F). Nature of the test: Experiment of binding peptide to HLA-A*24:02 molecule (C1R-A24 cells, antibody 17A12, FACS). The note with it: for Kd: given as negative numbers (log of Kd value), C1R-A24 cells, on ice 4 hours. The protocol: Experiment of Binding Peptide to HLA-A*24:02 Molecule
The ability of each of the peptides to bind to an HLA-A*24:02 molecule, which is an HLA-A*24:02 gene product, was measured using C1R-A24 cells expressing the HLA-A*24:02 molecule (cells prepared by Professor Masafumi TAKIGUCHI, Kumamoto University being supplied with permission by Assistant Professor Masaki YASUKAWA, Ehime University).
First, C1R-A24 cells were exposed to acidic conditions at a pH of 3.3 for 30 seconds, and thus an endogenous peptide that originally binds to the HLA-A*24:02 molecule, and a light chain β2m, which is associated with HLA class-I molecules in common, were dissociated and removed. After neutralization, a purified β2m was added to C1R-A24 cells, and the obtained product was added to a series of dilutions of the peptide and incubated on ice for 4 hours. Staining was carried out using a fluorescently labeled monoclonal antibody 17A12, which recognizes association (MHC-pep) of the three members, that is, a HLA-A*24:02 molecule, a peptide, and β2m, which had reassociated during the incubation.
Thereafter, the MHC-pep count per C1R-A24 cell (proportional to the intensity of fluorescence of the above-mentioned fluorescent antibody) was quantitatively measured using a fluorescence-activated cell sorter FACScan (Becton-Dickinson). A binding-dissociation constant Kd value between the HLA-A*24:02 molecule and the peptide was calculated from the average intensity of fluorescence per cell using a method that was reported in a paper (Udaka et al., Immunogenetics, 51, 816-828, 2000) by the inventors of the present invention.

For the next test, the target named is T1, HLA-A*02:01 molecule (Homo sapiens, UniProt P04439, D140Y/D185E/D98H/E176V/E277Q/G131W/G231S/I119V/I121R/I166T/I218V/L300P/L318F/N151K/N90K/P208A/P217A/Q86G/Q94H/R138H/R169H/T345S).
T1 construct: a cell line T2 (purchased from ATCC) expressing the HLA-A*02:01 molecule; host or cells: T2 cells
Nature of the test: Experiment of binding peptide to HLA-A*02:01 molecule (T2 cells, antibody BB7.2, flow cytometer). As to conditions: for Kd: given as negative numbers (log of Kd value), T2 cells, 37° C. 4 hours. The protocol:
Experiment of Binding Peptide to HLA-A*02:01 Molecule
The ability of each of the peptides to bind to an HLA-A*02:01 molecule, which is an HLA-A*02:01 gene product, was measured using a cell line T2 (purchased from ATCC) expressing the HLA-A*02:01 molecule.
The T2 cells and purified β2m were added to a series of serial dilutions of the peptide whose binding ability would be measured, and then incubation was carried out at 37° C. for 4 hours. The HLA-A*02:01 molecule that had increased in an expression amount in a peptide-concentration-dependent manner up to this point was stained using a fluorescently labeled monoclonal antibody BB7.2, which is specific to an association type.
(§1) Thereafter, the amount of fluorescence per cell was measured using a flow cytometer, and a dissociation constant Kd value was calculated using a method that was reported in a paper (Udaka et al., Immunogenetics, 51, 816-828, 2000) by the inventors of the present invention.
(In general: A flow cytometer gives signals particle by particle.)

For a further test, the target named is T2, HLA-A*02:06 molecule (Homo sapiens, UniProt P04439, D140Y/D185E/D98H/E176V/E277Q/F33Y/G131W/G231S/I119V/I121R/I166T/I218V/L300P/L318F/N151K/N90K/P208A/P217A/Q86G/Q94H/R138H/R169H/T345S).
T2 construct: expressed in transfected cells; host or cells: RA2.6 cells (mouse TAP-deficient RMAS cells carrying HLA-A*02:06 cDNA)
Nature of the test: Experiment of binding peptide to HLA-A*02:06 molecule (RA2.6 cells, antibody BB7.2, flow cytometer). The note with it: for Kd: given as negative numbers (log of Kd value), RA2.6 cells. How it is done:
Experiment of Binding Peptide to HLA-A*02:06 Molecule
The ability of each of the peptides to bind to an HLA-A*02:06 molecule, which is an HLA-A*02:06 gene product, was measured using RA2.6 cells (cell line that had been newly produced in Kochi University) produced by introducing the cDNA of the HLA-A*02:06 gene into a mouse TAP (transporter associated with antigen processing)-deficient cell line RMAS.
First, RA2.6 cells were cultured at 26° C. overnight.
Thereafter, the cells were cultured at 35° C. for 4 hours. […] A fluorescently labeled monoclonal antibody BB7.2, which specifically recognizes a peptide-binding HLA-A*02:06 molecule, was added thereto, incubation was carried out on ice for 20 minutes, and thus the cells were stained.
as §1

The subject of the next test is CD8T cells. Nature of the test: Peptide immunity induction testing (peptide-stimulated dendritic cells cocultured with CD8T cells, IFN-γ ELISA). The test is classed as cell-based, human. How it is done:
Peptide Immunity Induction Testing
Of the peripheral blood monocytes obtained through pheresis from a patient (0) that had undergone a dendritic cell/CTL therapy against MUC1, a cell fraction that adhered to a culture flask was cultured in an AIM-CM culture medium (manufactured by Gibco) at 37° C. for 10 days. During the culture, 15 μl of IL-4 and 30 μl of a granulocyte monocyte colony-stimulating factor (GM-CSF) added to the culture medium on Day 0 and Day 3, and 15 μl of IL-4, 30 μl of GM-CSF, and 75 μl of a tumor necrosis factor (TFN)-α were added thereto on Day 5.
Induced dendritic cells were collected in a new AIM-CM culture medium, and the peptide of the present invention (Sequence ID Nos. 1 to 12) was added thereto to a concentration of 20 μg/ml. […]
CD8T cells were isolated from the culture medium using a CD8 negative selection kit (manufactured by Miltenyi), and the number of cells was counted. […]
The culture supernatant of the coculture of the T cells and the dendritic cells pulsed with the above-mentioned peptides on Day 7 was diluted to four steps, that is, ×1, ×5, ×25, and ×125, and the dilution step within a measurement limit was identified using Human IFN-γ ELISA MAX Deluxe Set (manufactured by BioLegend). Thereafter, at the identified dilution step, each sample was measured three times. […]
On the technique in general: ELISA stands for enzyme-linked immunosorbent assay.

Ends that are not written are not given here. Bounds are passed on as bounds.

For the sequence AASRYNLTI [Seq. ID No. 5, AASRYNLTI], the equilibrium dissociation constant (Kd) on HLA-A*24:02 molecule is 0.711 µM; on HLA-A*02:01 molecule, 15.4 µM; on HLA-A*02:06 molecule, 150 µM.

Take AFREGTINV [Seq. ID No. 4, AFREGTINV]: the results for the Kd at HLA-A*24:02 molecule, on HLA-A*02:01 molecule and at HLA-A*02:06 molecule were 1.47 µM, greater than 1000 µM and greater than 1000 µM, respectively.

As for FLGLSNIKF [Seq. ID No. 1, FLGLSNIKF], the dissociation constant (Kd) at HLA-A*24:02 molecule is 0.0845 µM; at HLA-A*02:01 molecule, 4.07 µM; on HLA-A*02:06 molecule it was 41.1 µM.

Take FSAQSGAGV [Seq. ID No. 12, FSAQSGAGV]: the equilibrium dissociation constant (Kd) was greater than 1000 µM at HLA-A*24:02 molecule, 18.2 µM on HLA-A*02:01 molecule and 2.18 µM on HLA-A*02:06 molecule.

For GQDVTSVPV [Seq. ID No. 11, GQDVTSVPV], the values for the Kd at HLA-A*24:02 molecule, on HLA-A*02:01 molecule and at HLA-A*02:06 molecule were greater than 1000 µM, 0.366 µM and 0.448 µM, respectively.

As for GVPGWGIAL [Seq. ID No. 3, GVPGWGIAL], the dissociation constant (Kd) on HLA-A*24:02 molecule is 1.18 µM; on HLA-A*02:01 molecule, 28.3 µM; on HLA-A*02:06 molecule, 1.73 µM.

For the sequence HHSDTPTTL [Seq. ID No. 7, HHSDTPTTL], the Kd at HLA-A*24:02 molecule was 1.36 µM; at HLA-A*02:01 molecule it was greater than 1000 µM; at HLA-A*02:06 molecule, greater than 1000 µM.

Regarding LQRDISEMF [Seq. ID No. 6, LQRDISEMF], the dissociation constant (Kd) was 0.226 µM on HLA-A*24:02 molecule, greater than 1000 µM on HLA-A*02:01 molecule and 54.9 µM at HLA-A*02:06 molecule.

On to SFFFLSFHI [Seq. ID No. 8, SFFFLSFHI], for which the results for the Kd at HLA-A*24:02 molecule, at HLA-A*02:01 molecule and at HLA-A*02:06 molecule were 0.0861 µM, greater than 100 µM and 105 µM, respectively.

As to STGVSFFFL [Seq. ID No. 10, STGVSFFFL], at HLA-A*24:02 molecule, the “Binding to HLA-A*24:02 molecule (in words)” value is listed as “strongly binds” and binding was characterised by a dissociation constant (Kd) of 6.74 µM. On HLA-A*02:01 molecule, the “Binding to HLA-A*02:01 molecule (in words)” value was “strongly binds” and the Kd was 7.55 µM. In addition, at HLA-A*02:06 molecule, the “Binding to HLA-A*02:06 molecule (in words)” value was “strongly binds” and the affinity, expressed as Kd, was 6.19 µM. Moreover, in the test on CD8T cells, the “Immunogenicity (in words)” value is reported as “high immunogenicity”.

For SVPVTRPAL [Seq. ID No. 2, SVPVTRPAL], the Kd is 0.0573 µM on HLA-A*24:02 molecule, 125 µM on HLA-A*02:01 molecule and 2.36 µM on HLA-A*02:06 molecule.

Turning to TLAFREGTI [Seq. ID No. 9, TLAFREGTI], the equilibrium dissociation constant (Kd) was 1.06 µM at HLA-A*24:02 molecule, greater than 1000 µM on HLA-A*02:01 molecule and 820 µM at HLA-A*02:06 molecule.
